The nature of experiment [1]: Binding affinity to human RFC expressed in Chinese hamster PC43-10 cells assessed as antiproliferative activity measured as reduction in cell growth after 96 hrs by Cell-Titer Blue assay.
Experiment [2] in a line: Binding affinity to human RFC2 expressed in human HeLa R1-11 cells assessed as antiproliferative activity measured as reduction in cell growth after 96 hrs by Cell-Titer Blue assay.
The nature of experiment [3]: Binding affinity to human PCFT4 expressed in human HeLa R1-11 cells assessed as antiproliferative activity measured as reduction in cell growth after 96 hrs by Cell-Titer Blue assay.
Experiment [4] can be described thus: Binding affinity to human PCFT expressed in Chinese hamster R2/PCFT4 cells assessed as antiproliferative activity measured as reduction in cell growth after 96 hrs by Cell-Titer Blue assay.
Experiment [5] can be described thus: Binding affinity to human FRbeta expressed in Chinese hamster D4 cells assessed as antiproliferative activity measured as reduction in cell growth after 96 hrs by Cell-Titer Blue assay.
Experiment [6] in a line: Binding affinity to human FRalpha expressed in Chinese hamster RT16 cells assessed as antiproliferative activity measured as reduction in cell growth after 96 hrs by Cell-Titer Blue assay.
The target in experiment [7] is Folate receptor alpha (Homo sapiens) (UniProt P15328). Briefly: Binding affinity to human FRalpha expressed in human HeLa R1-11-FR2 cells assessed as antiproliferative activity measured as reduction in cell growth after 96 hrs by Cell-Titer Blue assay.

As a reminder, the IC50 is the concentration needed to halve the response being measured.

Chain of Folate receptor alpha (Homo sapiens) (P15328 whole entry, looked up): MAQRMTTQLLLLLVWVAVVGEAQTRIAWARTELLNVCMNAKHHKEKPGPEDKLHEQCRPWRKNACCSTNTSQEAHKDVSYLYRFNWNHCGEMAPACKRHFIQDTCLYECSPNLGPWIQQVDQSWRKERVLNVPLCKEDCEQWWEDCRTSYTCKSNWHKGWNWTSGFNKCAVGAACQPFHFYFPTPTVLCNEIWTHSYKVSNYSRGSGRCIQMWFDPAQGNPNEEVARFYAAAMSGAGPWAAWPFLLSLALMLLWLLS

`Nc1nc2[nH]c(CCCCc3csc(C(=O)N[C@@H](CCC(=O)O)C(=O)O)c3)cc2c(=O)[nH]1`: the IC50 is above 1000 nM in experiment [1], above 1000 nM in experiment [2] and 73 nM in experiment [3].
On to `Nc1nc2[nH]c(CCCCc3csc(C(=O)N[C@@H](CCC(=O)O)C(=O)O)c3F)cc2c(=O)[nH]1`, for which the concentration for half-maximal inhibition (IC50) is 6 nM in experiment [4], above 1000 nM in experiment [1], 213 nM in experiment [2] and 5 nM in experiment [3].
On to `Nc1nc2[nH]c(CCCCc3ccc(C(=O)N[C@@H](CCC(=O)O)C(=O)O)cc3F)cc2c(=O)[nH]1`, for which the IC50 worked out at 207 nM in experiment [4], 0.93 nM in experiment [5] and 1.4 nM in experiment [6].
Take `Nc1nc2[nH]c(CCCc3ccc(C(=O)N[C@@H](CCC(=O)O)C(=O)O)s3)cc2c(=O)[nH]1`: the half-inhibitory concentration (IC50) was found to be 106 nM in experiment [1] and 444 nM in experiment [2].
Regarding `Nc1nc2[nH]c(CCCc3csc(C(=O)N[C@@H](CCC(=O)O)C(=O)O)c3F)cc2c(=O)[nH]1`, the IC50 in experiment [4] was found to be 1.5 nM; in experiment [5] it was 0.19 nM; in experiment [7] it was 3.1 nM; in experiment [2] it was 66 nM; in experiment [6] it was 0.14 nM.
In the case of `Nc1nc2[nH]c(CCCc3ccc(C(=O)N[C@@H](CCC(=O)O)C(=O)O)c(F)c3)cc2c(=O)[nH]1`, the 50% inhibitory concentration (IC50) stood at 3.8 nM in experiment [4]; 62 nM in experiment [1]; 3.9 nM in experiment [5]; 5.2 nM in experiment [7]; 507 nM in experiment [2]; 5.5 nM in experiment [3].
`Nc1nc2[nH]c(CCCc3csc(C(=O)N[C@@H](CCC(=O)O)C(=O)O)c3)cc2c(=O)[nH]1`: the results for the IC50 in experiment [2] and in experiment [3] were 63 nM and 40 nM, respectively.
On to `Nc1nc2[nH]c(CCCCc3ccc(C(=O)N[C@@H](CCC(=O)O)C(=O)O)cc3)cc2c(=O)[nH]1` [N-{4-[4-(2-Amino-4-oxo-4,7-dihydro-3H-pyrrolo[2,3-d]pyrimidin-6-yl)butyl]benzoyl}-L-glutamic Acid], for which the IC50 in experiment [1] and in experiment [2] was above 1000 nM in each case.
For the compound `Nc1nc2[nH]c(CCCCc3ccc(C(=O)N[C@@H](CCC(=O)O)C(=O)O)nc3)cc2c(=O)[nH]1`, the 50% inhibitory concentration (IC50) is above 1000 nM in experiment [1], 634 nM in experiment [2] and 9 nM in experiment [3].
Take `Nc1nc2[nH]c(CCCc3ccc(C(=O)N[C@@H](CCC(=O)O)C(=O)O)cc3)cc2c(=O)[nH]1` [(S)-2-(4-(3-(2-amino-4-oxo-4,7-dihydro-3H-pyrrolo[2,3-d]pyrimidin-6-yl)propyl)benzamido)pentanedioic acid]: the IC50 is 304 nM in experiment [1], above 1000 nM in experiment [2] and 9.7 nM in experiment [3].
